Converted amounts (≈) assume the structure as drawn. Like-named read-outs stand apart in the source and are kept apart here.
Test system: Streptococcus pneumoniae
Test: MIC by agar dilution (NCCLS), 411 isolates Buenos Aires 1998-99
Type: cell-based
Conditions: Streptococcus pneumoniae, S. pneumoniae, read-out: MIC90

**Q.** `CO/N=C(\C(=O)N[C@@H]1C(=O)N2C(C(=O)O)=C(CSc3nc(=O)c(=O)[nH]n3C)CS[C@H]12)c1csc(N)n1` [Ceftriaxone, ceftriaxone] was tested. Which MIC90 (Penicillin intermediate (n = 17)) did it give?
**A.** 1 µg/mL (≈ 1.8 µM)

**Q.** And the MIC90 (Penicillin resistant (n = 4))?
**A.** 1 µg/mL (≈ 1.8 µM)

**Q.** And the MIC90 (Penicillin susceptible (n = 69))?
**A.** 0.016 µg/mL (≈ 0.0289 µM)

— EP1561465A2, “Methods of use of fluoroquinolone compounds against bacteria” (LG Life Sciences, Ltd., priority 1999, dated 2001)
